Patent publication US20240109880A1 (Insilico Medicine IP Limited, priority 2021, published 2024)

Experiments:
KAT6A = KAT6A (Homo sapiens (Human), UniProt Q92794); assay: KAT6A Biochemical Assay (radiometric 384-well, [3H]-Ac-CoA, biotinylated H4(1-30) peptide); conditions: 5 nM KAT6A enzyme solution (2×), 60 min reaction at room temperature
Method: Inhibition of KAT6A enzymatic activity by test compounds was determined using a radiometric 384-well format assay. A 10-point serial dilution of the test compounds were conducted in DMSO and then a volume of 200 nL was transferred into 384-well assay plate by Echo (Labcyte). 10 μL of 2× enzyme solution (5 nM KAT6A (Active Motif) in assay buffer (50 mM Tris-HCl pH 8.0, 50 mM KCl, 0.1 mM EDTA, 5% glycerol, 1 mM DTT)) was dispensed into assay plate except for low control wells, in which 10 μL of assay buffer was transferred. The plate was incubated at room temperature for 15 min before addition of 10 μL of 2×[^3H]-acetyl coenzyme A (Ac-CoA) and substrate peptide mix solution (500 nM (KAT6A) [^3H]-Ac-CoA (PerkinElmer) and 800 nM (KAT6A) biotinylated H4(1-30) peptide (GL Biochem) in assay buffer) to each well to start reaction. The plate was incubated at room temperature for 60 min (KAT6A), and then the reaction was stopped by adding 10 μL of stop solution (cold Ac-CoA (Cayman) in 1× assay buffer). 25 μL of reaction in each well was transferred to Flashplate (PerkinElmer) and incubated for another 1 hour at room temperature. The plate was read on Microbeta and the inhibition percentage of each compound treated well was calculated based on the equation in h %=(Max−sample)/(Max−Min)*100 where Max is signal from high control wells with enzyme, and Min is signal from low control wells with assay buffer only. The in h % data were further fit in XL-Fit to obtain IC50 values using a 4-parameter logistic (4PL) sigmoidal curve model.

[1] = Permeability in Caco-2 Assay; assay type: in vitro ADME; conditions: human, pH 7.4, 2 hours; for efflux ratio at 2 h, 2 μM: Caco-2, 2.00 μM bi-directionally; for Papp A→B at 2 h, 2 μM: Caco-2, 2.00 μM, pH 7.40
Method: Permeability of test compounds was determined in Caco-2 Assay. Caco-2 cells purchased from ATCC were seeded onto […] (PET) in 96-well Corning Insert plates at 1×10^5 cells/cm2, and refreshed medium every 4-5 days until to the 21st to 28th day for confluent cell monolayer formation. The transport buffer in the study was HBSS with 10.0 mM HEPES at pH 7.40±0.05. Test compound was tested at 2.00 μM bi-directionally in duplicate. Digoxin was tested at 10.0 μM bi-directionally in duplicate, while nadolol and metoprolol were tested at 2.00 μM in A to B direction in duplicate. Final DMSO concentration was adjusted to less than 1%. The plate was incubated for 2 hours in CO2 incubator at 37±1° C., with 5% CO2 at saturated humidity without shaking. And all samples after mixed with acetonitrile containing internal standard were centrifuged at 3200×g for 10 min. For nadolol and metoprolol, 200 μL supernatant solution was diluted with 600 μL ultra-pure water for LC-MS/MS analysis. For digoxin and test compounds, 200 μL supernatant solution was diluted with 200 μL ultra-pure water for LC-MS/MS analysis. Concentrations of test and control compounds in starting solution, donor solution, and receiver solution were quantified by LC-MS/MS methodologies, using peak area ratio of analyte/internal standard. After transport assay, lucifer yellow rejection assay was applied to determine the Caco-2 cell monolayer integrity.

KAT6A, sequence (Q92794 whole entry): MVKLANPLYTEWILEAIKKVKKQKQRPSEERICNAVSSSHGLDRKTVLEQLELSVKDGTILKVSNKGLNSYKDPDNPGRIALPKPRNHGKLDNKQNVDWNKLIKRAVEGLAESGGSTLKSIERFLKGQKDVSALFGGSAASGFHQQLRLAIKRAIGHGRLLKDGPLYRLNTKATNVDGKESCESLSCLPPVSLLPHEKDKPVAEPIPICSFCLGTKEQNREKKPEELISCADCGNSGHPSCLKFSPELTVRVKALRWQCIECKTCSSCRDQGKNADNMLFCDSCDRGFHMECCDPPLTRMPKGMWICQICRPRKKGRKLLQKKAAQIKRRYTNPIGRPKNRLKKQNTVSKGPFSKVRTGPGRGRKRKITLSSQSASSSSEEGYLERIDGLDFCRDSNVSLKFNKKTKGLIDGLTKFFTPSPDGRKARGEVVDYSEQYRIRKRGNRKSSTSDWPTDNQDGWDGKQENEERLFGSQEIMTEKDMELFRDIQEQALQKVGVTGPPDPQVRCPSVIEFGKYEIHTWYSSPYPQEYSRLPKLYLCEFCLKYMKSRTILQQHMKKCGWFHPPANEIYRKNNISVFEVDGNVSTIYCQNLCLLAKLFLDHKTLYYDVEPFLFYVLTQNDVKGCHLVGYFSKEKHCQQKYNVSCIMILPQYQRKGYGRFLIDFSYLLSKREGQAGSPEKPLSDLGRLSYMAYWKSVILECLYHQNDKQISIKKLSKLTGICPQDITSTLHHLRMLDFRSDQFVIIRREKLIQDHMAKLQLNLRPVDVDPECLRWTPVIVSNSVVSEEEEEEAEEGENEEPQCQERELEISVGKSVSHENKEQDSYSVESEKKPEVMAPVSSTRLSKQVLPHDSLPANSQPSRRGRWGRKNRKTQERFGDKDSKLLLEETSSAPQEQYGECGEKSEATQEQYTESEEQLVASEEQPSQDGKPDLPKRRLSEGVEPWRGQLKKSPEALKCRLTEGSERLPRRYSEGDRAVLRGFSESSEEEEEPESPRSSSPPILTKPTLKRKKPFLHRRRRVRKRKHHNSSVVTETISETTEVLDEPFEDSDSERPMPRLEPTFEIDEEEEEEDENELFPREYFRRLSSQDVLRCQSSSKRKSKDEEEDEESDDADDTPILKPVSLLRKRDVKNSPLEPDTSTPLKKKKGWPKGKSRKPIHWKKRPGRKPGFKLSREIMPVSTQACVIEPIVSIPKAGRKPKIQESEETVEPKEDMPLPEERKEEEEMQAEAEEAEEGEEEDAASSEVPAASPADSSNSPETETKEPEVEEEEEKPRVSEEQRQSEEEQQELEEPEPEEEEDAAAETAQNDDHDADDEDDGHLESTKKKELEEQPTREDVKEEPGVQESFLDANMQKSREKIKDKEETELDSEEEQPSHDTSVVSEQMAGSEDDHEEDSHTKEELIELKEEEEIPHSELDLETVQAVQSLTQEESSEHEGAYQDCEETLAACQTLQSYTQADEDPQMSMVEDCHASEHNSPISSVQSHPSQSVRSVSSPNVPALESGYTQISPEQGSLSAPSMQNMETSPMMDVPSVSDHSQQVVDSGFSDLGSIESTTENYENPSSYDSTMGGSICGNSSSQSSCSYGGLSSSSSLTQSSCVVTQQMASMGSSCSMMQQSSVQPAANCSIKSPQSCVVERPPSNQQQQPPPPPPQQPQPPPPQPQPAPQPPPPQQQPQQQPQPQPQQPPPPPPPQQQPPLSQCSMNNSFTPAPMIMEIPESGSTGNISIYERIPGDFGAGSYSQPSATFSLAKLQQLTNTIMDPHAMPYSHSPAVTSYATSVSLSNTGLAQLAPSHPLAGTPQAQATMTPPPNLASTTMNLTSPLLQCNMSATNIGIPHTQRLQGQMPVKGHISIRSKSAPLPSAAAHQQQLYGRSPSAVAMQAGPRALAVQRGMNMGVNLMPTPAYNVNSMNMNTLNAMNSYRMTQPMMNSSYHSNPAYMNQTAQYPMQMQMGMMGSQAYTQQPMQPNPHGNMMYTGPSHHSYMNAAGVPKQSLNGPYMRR

| Structure (SMILES) | IC50 (KAT6A) [nM] | efflux ratio at 2 h, 2 μM [1] | Papp A→B at 2 h, 2 μM [1] [×10⁻⁶ cm/s] |
| --- | --- | --- | --- |
| COc1cccc(OC)c1S(=O)(=O)Nc1noc2cc(Oc3ccccn3)cc(OC(F)F)c12 [Compound 22, N-(4-(difluoromethoxy)-6-(pyridin-2-yloxy)benzo[d]isoxazol-3-yl)-2,6-dimethoxybenzenesulfonamide] | 10 to 100 | 6.87 | 3.45 |
| COc1cccc(OC)c1S(=O)(=O)Nc1noc2cc(Oc3ccccn3)cc(OC)c12 [Compound 9, 2,6-dimethoxy-N-(4-methoxy-6-(pyridin-2-yloxy)benzo[d]isoxazol-3-yl)benzenesulfonamide] | 10 to 100 | 3.66 | 11.8 |
| COc1cccc(OC)c1S(=O)(=O)Nc1noc2cc(Cn3cccn3)c3c(c12)OCCCC3 [Compound 19] | < 10 | 13.2 | 3.47 |
| COc1cccc(OC)c1S(=O)(=O)Nc1noc2cc(Oc3ccccn3)c3c(c12)OCC3 [Compound 23, 2,6-dimethoxy-N-(4-(pyridin-2-yloxy)-2,3-dihydrobenzofuro [7,6-d]isoxazol-8-yl)benzenesulfonamide] | < 10 | 14.2 | 1.3 |
| COc1cc(C)nc(OC)c1S(=O)(=O)Nc1noc2cc(Cn3cccn3)cc(OC)c12 [Compound 11, N-(6-((1H-pyrazol-1-yl)methyl)-4-methoxybenzo[d]isoxazol-3-yl)-2,4-dimethoxy-6-methylpyridine-3-sulfonamide] | < 10 | – | – |
| COc1cc(C)nc(OC)c1S(=O)(=O)Nc1noc2cc(Cn3cccn3)c3c(c12)OCCCC3 [Compound 21, N-(6-((1H-pyrazol-1-yl)methyl)-2,3,4,5-tetrahydrooxepino [3′,2′:5,6]benzo[1,2-d]isoxazol-10-yl)-2,4-dimethoxy-6-methylpyridine-3-sulfonamide] | < 10 | – | – |
| COc1cc(C(F)F)nc(OC)c1S(=O)(=O)Nc1noc2cc(Cn3cccn3)cc(OC)c12 [Compound 40, N-(6-((1H-pyrazol-1-yl)methyl)-4-methoxybenzo[d]isoxazol-3-yl)-6-(difluoromethyl)-2,4-dimethoxypyridine-3-sulfonamide] | 10 to 1000 | – | – |
| COc1ccccc1S(=O)(=O)Nc1noc2cc(Cn3cccn3)c3c(c12)OCCC3 [Compound 15, N-(5-((1H-pyrazol-1-yl)methyl)-3,4-dihydro-2H-chromeno [8,7-d]isoxazol-9-yl)-2-methoxybenzenesulfonamide] | < 10 | – | – |
| COc1cccc(OC)c1S(=O)(=O)Nc1noc2cc(Cn3cccn3)cc(OCF)c12 [Compound 31, N-(6-((1H-pyrazol-1-yl)methyl)-4-(fluoromethoxy)benzo [d]isoxazol-3-yl)-2,6-dimethoxybenzenesulfonamide] | < 10 | – | – |
| COc1cccc(OC)c1S(=O)(=O)Nc1noc2cc(Oc3ncccn3)c3c(c12)OCCC3 [Compound 33, 2,6-dimethoxy-N-(5-(pyrimidin-2-yloxy)-3,4-dihydro-2H-chromeno[8,7-d]isoxazol-9-yl)benzenesulfonamide] | 10 to 100 | – | – |
| COc1cccc(OC)c1S(=O)(=O)Nc1noc2cc(Oc3ncco3)c3c(c12)OCCC3 [Compound 34, 2,6-dimethoxy-N-(5-(oxazol-2-yloxy)-3,4-dihydro-2H-chromeno[8,7-d]isoxazol-9-yl)benzenesulfonamide] | < 10 | – | – |

Next, values leading:

| IC50 (KAT6A) [nM] | efflux ratio at 2 h, 2 μM [1] | Papp A→B at 2 h, 2 μM [1] [×10⁻⁶ cm/s] | Structure (SMILES) |
| --- | --- | --- | --- |
| < 10 | 6.17 | 5.14 | COc1cccc(OC)c1S(=O)(=O)Nc1noc2cc(Oc3nccs3)cc(OCF)c12 [Compound 58] |
| < 10 | 3.16 | 10.6 | COc1cccc(OC)c1S(=O)(=O)Nc1noc2cc(Oc3nccs3)c3c(c12)OCCCC3 [Compound 62, 2,6-dimethoxy-N-(6-(thiazol-2-yloxy)-2,3,4,5,9,10-hexahydrooxepino[3′,2′:5,6]benzo[1,2-d]isoxazol-10-yl)benzenesulfonamide] |
| < 10 | 4.53 | 6.2 | COc1cccc(OC)c1S(=O)(=O)Nc1noc2cc(Oc3nccs3)cc(OC)c12 [Compound 59, 2,6-dimethoxy-N-(4-methoxy-6-(thiazol-2-yloxy)benzo[d]isoxazol-3-yl)benzenesulfonamide] |
| 10 to 100 | 12.3 | 1.46 | COc1cc(C)nc(OC)c1S(=O)(=O)Nc1noc2cc(Oc3nccs3)cc(OCF)c12 [Compound 55, N-(4-(fluoromethoxy)-6-(thiazol-2-yloxy)benzo[d]isoxazol-3-yl)-2,4-dimethoxy-6-methylpyridine-3-sulfonamide] |
| < 10 | 1.76 | 9.38 | COc1ccccc1S(=O)(=O)Nc1noc2cc(Oc3nccs3)c3c(c12)OCCC3 [Compound 61, 2-methoxy-N-(5-(thiazol-2-yloxy)-3,4-dihydro-2H-chromeno[8,7-d]isoxazol-9-yl)benzenesulfonamide] |
| < 10 | 4.25 | 6.83 | COc1cccc(OC)c1S(=O)(=O)Nc1noc2cc(Sc3nccs3)cc(OC)c12 [Compound 66, 2,6-dimethoxy-N-(4-methoxy-6-(thiazol-2-ylthio)benzo[d]isoxazol-3-yl)benzenesulfonamide] |
| – | – | 0.628 | COc1cccc(OC)c1S(=O)(=O)Nc1noc2cc(Cn3cccn3)cc(OC)c12 [PF-9363, reference compound] |
| 10 to 100 | 9.74 | 2.29 | COc1cc(C)nc(OC)c1S(=O)(=O)Nc1noc2cc(Sc3nccs3)cc(OC)c12 [Compound 68, 2,4-dimethoxy-N-(4-methoxy-6-(thiazol-2-ylthio)benzo[d]isoxazol-3-yl)-6-methylpyridine-3-sulfonamide] |
| < 10 | 2.84 | 5.28 | COc1ccccc1S(=O)(=O)Nc1noc2cc(Oc3nccs3)cc(OCF)c12 [Compound 56, N-(4-(fluoromethoxy)-6-(thiazol-2-yloxy)benzo[d]isoxazol-3-yl)-2-methoxybenzenesulfonamide] |
| 10 to 100 | 1.4 | 10.9 | COc1ccccc1S(=O)(=O)Nc1noc2cc(Sc3nccs3)cc(OC)c12 [Compound 67, 2-methoxy-N-(4-methoxy-6-(thiazol-2-ylthio)benzo[d]isoxazol-3-yl)benzenesulfonamide] |
| < 10 | – | – | COc1cccc(OC)c1S(=O)(=O)Nc1noc2cc(Cc3nccs3)cc(OCF)c12 [Compound 65, N-(4-(fluoromethoxy)-6-(thiazol-2-ylmethyl)benzo[d]isoxazol-3-yl)-2,6-dimethoxybenzenesulfonamide] |
| < 10 | – | – | COc1cc(C(F)(F)F)nc(OC)c1S(=O)(=O)Nc1noc2cc(Cn3cccn3)cc(OCF)c12 [Compound 51, N-(6-((1H-pyrazol-1-yl)methyl)-4-(fluoromethoxy)benzo[d]isoxazol-3-yl)-2,4-dimethoxy-6-(trifluoromethyl)pyridine-3-sulfonamide] |
| 10 to 100 | – | – | CCc1cc(OC)c(S(=O)(=O)Nc2noc3cc(Cn4cccn4)cc(OCF)c23)c(OC)n1 [Compound 52, N-(6-((1H-pyrazol-1-yl)methyl)-4-(fluoromethoxy)benzo[d]isoxazol-3-yl)-6-ethyl-2,4-dimethoxypyridine-3-sulfonamide] |
| < 10 | – | – | COc1ccnc(OC)c1S(=O)(=O)Nc1noc2cc(Cn3cccn3)cc(OCF)c12 [Compound 48, N-(6-((1H-pyrazol-1-yl)methyl)-4-(fluoromethoxy)benzo[d]isoxazol-3-yl)-2,4-dimethoxypyridine-3-sulfonamide] |
| 10 to 100 | – | – | COc1cc(C)nc(OC)c1S(=O)(=O)Nc1noc2cc(Cn3cccn3)c(F)c(OCF)c12 [Compound 43, N-(6-((1H-pyrazol-1-yl)methyl)-5-fluoro-4-(fluoromethoxy)benzo[d]isoxazol-3-yl)-2,4-dimethoxy-6-methylpyridine-3-sulfonamide] |
